# Measurements published in ChEMBL document CHEMBL1201862, “PubChem BioAssay data set” (2004).
#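 Briefly, cells in 96-well plates were exposed to five compound concentrations for 48 h, and endpoints were estimated by linear interpolation. At the GI50, growth is halved.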 Calls of active or inactive are those of the source. Cut-off read from the data, not from the text of the source: active = GI50 up to about 1.1 µM and inactive = higher.
# What was measured:
# Experiment in all cases: inhibition of tumour cell growth, NCI panel, 48 h
# SK-MEL-28 = test system: SK-MEL-28
# NCI/ADR-RES = test system: NCI/ADR-RES
# OVCAR-3 = test system: OVCAR-3
# EKVX = test system: EKVX
# CCRF-CEM = test system: CCRF-CEM
# HOP-62 = test system: HOP-62
# CAKI-1 = test system: CAKI-1
# SR = test system: SR
# MDA-MB-231 = test system: MDA-MB-231
# HCT-15 = test system: HCT-15
# PC-3 = test system: PC-3
# MDA-N = test system: MDA-N
# SK-MEL-5 = test system: SK-MEL-5
# KM12 = test system: KM12
# Hs-578T = test system: Hs-578T
# NCI-H522 = test system: NCI-H522
# SF-295 = test system: SF-295
# NCI-H460 = test system: NCI-H460
# HL-60 = test system: HL-60
# ACHN = test system: ACHN
Compound,GI50 (SK-MEL-28),GI50 (NCI/ADR-RES),GI50 (OVCAR-3),GI50 (EKVX),GI50 (CCRF-CEM),GI50 (HOP-62),GI50 (CAKI-1),GI50 (SR),GI50 (MDA-MB-231),GI50 (HCT-15),GI50 (PC-3),GI50 (MDA-N),GI50 (SK-MEL-5),GI50 (KM12),GI50 (Hs-578T),GI50 (NCI-H522),GI50 (SF-295),GI50 (NCI-H460),GI50 (HL-60),GI50 (ACHN)
CC(=O)OC1(C)CC(C)C(=O)C(C(O)CC2CC(=O)NC(=O)C2)C1 (stereo not given),7.76 nM (active),38.6 nM (active),23.6 nM (active),25.3 nM (active),5.07 nM (active),19.3 nM (active),87.5 nM (active),1.85 nM (active),13.7 nM (active),34.8 nM,19.9 nM (active),16.6 nM (active),7.87 nM (active),7.46 nM (active),22.3 nM (active),3.57 nM (active),12.7 nM (active),12.1 nM (active),9.55 nM (active),7.43 nM (active)
O=C(O)c1cccc(NC(C(=O)c2ccccc2)c2ccccc2)c1 (stereo not given),> 100000 nM (inactive),> 100000 nM (inactive),> 100000 nM (inactive),> 100000 nM (inactive),> 100000 nM (inactive),> 100000 nM (inactive),> 100000 nM (inactive),> 100000 nM (inactive),> 100000 nM (inactive),> 100000 nM,> 100000 nM (inactive),> 100000 nM (inactive),> 100000 nM (inactive),> 100000 nM (inactive),714 nM (active),78900 nM (inactive),> 100000 nM (inactive),> 100000 nM (inactive),> 100000 nM (inactive),> 100000 nM (inactive)
CN(CCCNC(=O)c1nn(-c2ccccc2)c2c1Cc1ccccc1-2)CCCNC(=O)c1nn(-c2ccccc2)c2c1Cc1ccccc1-2,1590 nM (inactive),1630 nM (inactive),1710 nM (inactive),1830 nM (inactive),1000 nM (active),1580 nM (inactive),1380 nM (inactive),191 nM (active),1760 nM (inactive),1640 nM,1690 nM (inactive),1500 nM (inactive),1570 nM (inactive),1900 nM (inactive),1250 nM (inactive),1350 nM (inactive),1840 nM (inactive),1660 nM (inactive),603 nM (active),1730 nM (inactive)
COc1ccc(C(=O)Nc2ccc3oc(-c4ccccc4)nc3c2)cc1,> 100000 nM (inactive),70100 nM (inactive),> 100000 nM (inactive),> 100000 nM (inactive),> 100000 nM (inactive),76600 nM (inactive),> 100000 nM (inactive),> 100000 nM (inactive),> 100000 nM (inactive),> 100000 nM,> 100000 nM (inactive),> 100000 nM (inactive),> 100000 nM (inactive),> 100000 nM (inactive),> 100000 nM (inactive),> 100000 nM (inactive),> 100000 nM (inactive),> 100000 nM (inactive),> 100000 nM (inactive),> 100000 nM (inactive)
